Columns and labels:
PRMT5/MEP50 = target: T1, PRMT5/MEP50 (Homo sapiens, UniProt O14744); test: PRMT5 Biochemical Assay (PRMT5/MEP50 enzyme assay on peptide substrate, 3H-SAM Flashplate); settings: PRMT5/MEP50 4 nM, 3H-SAM 75 nM, peptide 40 nM, 30 min preincubation at 25 degrees Celsius
T1 construct: Flag-PRMT5; made in house; host or cells: Spodoptera frugiperda (SF9) insect cells, baculovirus (pDEST8)
Summary of the method: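 FLAG-PRMT5/His-MEP50 from Sf9 cells (4 nM) preincubated 30 min at 25 °C with compounds, then reacted with 75 nM 3H-SAM and 40 nM biotinylated histone H4 1-15 peptide in Bicine pH 7.6, 1% DMSO. Stopped with 600 uM cold SAM; streptavidin Flashplate capture, scintillation counts; % inhibition fitted to 3- or 4-parameter curve.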

Z-138 cell line = test: Z-138 Proliferation Assay (Cell Titer Glo); assay type: cell-based; settings: Homo sapiens, 120 h; Z-138 cells, 5 days incubation, ATP (Cell Titer Glo)
Summary of the method: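 Z-138 cells in RPMI with 10% FBS exposed 5 days at 37 °C to nine-point 3-fold dilutions, top 20 μM final, 0.2% DMSO, triplicate. ATP-based CellTiter-Glo luminescence; IC50 from 4-parameter fit of normalized curves.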

T1 sequence (O14744 with tags, fused parts or gaps): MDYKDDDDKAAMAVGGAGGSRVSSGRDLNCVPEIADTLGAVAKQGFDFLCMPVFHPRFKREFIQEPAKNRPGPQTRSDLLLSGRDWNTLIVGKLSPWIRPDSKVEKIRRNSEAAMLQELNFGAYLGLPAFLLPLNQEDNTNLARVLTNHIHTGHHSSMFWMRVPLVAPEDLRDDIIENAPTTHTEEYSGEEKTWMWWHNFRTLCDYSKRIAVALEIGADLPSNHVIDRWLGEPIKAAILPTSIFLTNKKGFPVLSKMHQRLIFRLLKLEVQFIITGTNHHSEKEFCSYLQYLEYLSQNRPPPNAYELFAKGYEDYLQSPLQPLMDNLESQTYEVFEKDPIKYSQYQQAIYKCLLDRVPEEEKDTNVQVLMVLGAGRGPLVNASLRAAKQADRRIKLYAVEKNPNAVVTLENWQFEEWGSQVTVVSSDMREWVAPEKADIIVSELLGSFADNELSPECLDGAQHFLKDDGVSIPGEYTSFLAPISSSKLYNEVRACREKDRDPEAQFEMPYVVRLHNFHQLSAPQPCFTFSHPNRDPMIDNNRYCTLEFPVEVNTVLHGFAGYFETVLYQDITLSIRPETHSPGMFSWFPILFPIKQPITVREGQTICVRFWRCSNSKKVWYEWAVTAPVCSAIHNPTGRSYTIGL
T1 sequence (Q9BQA1 with tags, fused parts or gaps partner limits assumed): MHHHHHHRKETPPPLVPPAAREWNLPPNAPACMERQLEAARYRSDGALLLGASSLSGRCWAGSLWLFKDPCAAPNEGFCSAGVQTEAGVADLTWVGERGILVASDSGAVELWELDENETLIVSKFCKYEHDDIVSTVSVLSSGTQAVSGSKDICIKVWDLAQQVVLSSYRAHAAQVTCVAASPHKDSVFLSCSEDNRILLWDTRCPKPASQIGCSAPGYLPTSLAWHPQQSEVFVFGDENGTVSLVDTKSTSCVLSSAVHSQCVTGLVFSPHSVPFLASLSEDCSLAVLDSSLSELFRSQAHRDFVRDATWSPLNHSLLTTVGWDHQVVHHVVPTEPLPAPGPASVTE

IC50 (PRMT5/MEP50) [µM]	SMILES	EC50 (Z-138 cell line) [µM]
< 0.1	O=C(COc1cccc2cccnc12)NCC(O)CN1CCc2ccsc2C1 (stereo not drawn) [Compound 1-5, N-(2-hydroxy-3-{4H,5H,6H,7H-thieno[2,3-c]pyridin-6-yl}propyl)-2-(quinolin-8-yloxy)acetamide]	> 5
> 10	CC(=O)N1CCC(Nc2cc(C(=O)NC[C@H](O)CN3CCc4ncn(C)c4C3)ncn2)CC1 [Compound 3-30, (S)-6-((1-acetylpiperidin-4-yl)amino)-N-(2-hydroxy-3-(3-methyl-6,7-dihydro-3H-imidazo[4,5-c]pyridin-5(4H)-yl)propyl)pyrimidine-4-carboxamide]	> 5
> 10	CC(=O)N1CC(Nc2cc(C(=O)NC[C@H](O)CN3CCc4c(cnn4C)C3)ncn2)C1 [Compound 3-29]	> 5
